Experimental findings from patent publication US6777426B2, “Imidazole and imidazoline derivatives and uses thereof” (Synaptic Pharmaceutical Corporation, priority 1997, dated 2004) are described below.

Counter-ions that a name gives are not always drawn. Like-named read-outs stand apart in the source and are kept apart here.

The melting point is the temperature of the solid-liquid transition.

Data set [1] addresses T1, human α2a adrenergic receptor (Homo sapiens, UniProt P08913).
T1 construct: expressed in transfected cells; host or cells: LM(tk−) cells (L-α2A, ATCC CRL-11180), vector pCEXV-3
T1 sequence (P08913 1-465): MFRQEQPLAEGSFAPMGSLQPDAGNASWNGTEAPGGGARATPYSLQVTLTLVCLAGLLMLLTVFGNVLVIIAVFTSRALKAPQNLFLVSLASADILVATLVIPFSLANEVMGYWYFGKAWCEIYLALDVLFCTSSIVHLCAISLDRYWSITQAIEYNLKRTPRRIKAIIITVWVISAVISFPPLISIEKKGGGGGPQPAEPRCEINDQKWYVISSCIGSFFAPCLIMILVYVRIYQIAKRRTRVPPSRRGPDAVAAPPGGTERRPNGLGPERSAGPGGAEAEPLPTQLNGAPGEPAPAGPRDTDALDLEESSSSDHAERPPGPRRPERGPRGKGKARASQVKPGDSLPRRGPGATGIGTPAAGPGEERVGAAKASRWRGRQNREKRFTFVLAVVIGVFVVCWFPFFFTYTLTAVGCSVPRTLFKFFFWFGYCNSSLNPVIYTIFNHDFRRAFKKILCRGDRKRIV
The experiment in a line: α2 agonist activity: inhibition of forskolin-stimulated cAMP synthesis, α2a cells. It is filed as cell-based. The following applies: for α2a IA (Intrinsic Activity): inhibition of forskolin-stimulated cAMP, cloned human α2a. How it is done:
(§1) Binding and functional assays were performed using stably transfected cells expressing human α adrenergic receptors. Equilibrium competition binding assays were performed with membrane preparations from cultured LM(tk−) cells stably transfected with the cloned human adrenoceptor subtypes except for a21, which was expressed In Y-1 cells, using [^3H]prazosin for α1 receptors and [^3H]rauwolscine for […].
(§2) These cell lines were prepared by transfecting cloned cDNA or cloned genomic DNA or constructs containing both genomic DNA and cDNA encoding the human a adrenergic receptors as described below.
(§3) The agonist activity (expressed as pEC50) was measured as a function of the ability to inhibit the forskolin-stimulated synthesis of cyclic adenosine monophosphate (cAMP). The stably transfected cells were incubated in Ham's F10 with 5 mM theophylline, 10 mM HEPES, 17 mM pargyline, and/or appropriate concentrations of forskolin for 20 min. at 37° C. in 5% CO2. The tested compounds were then added to a final concentration of 0.001 nM to 1 mM and incubated for an additional 15 min. at 37° C. in 5% CO2. The medium was aspirated and the reaction was stopped by the addition of 100 mM HCl. […] The plates were stored at 4° C. for 15 min. and assayed to determine the linear concentration of cAMP. The appropriate dilution was interpolated from the standard curve of cold cAMP. The assessment of cAMP formation was determined by radioimmunoassay (cAMP radioimmunoassay kit; Advanced magnetics, Cambridge, Mass.). Radioactivity was quantified using a Packard COBRA Auto Gamma counter equipped with data reduction software.

The target of data set [2] is T2, human α2c adrenergic receptor (Homo sapiens, UniProt P18825).
T2 construct: The entire coding region of α2c (1383 bp), including 2 bp of 5′ UT and 400 bp of 3′ UT; expressed in transfected cells; host or cells: LM(tk−) cells (L-α2c, ATCC CRL-11181), vector pCEXV-3
T2 sequence (P18825 1-462): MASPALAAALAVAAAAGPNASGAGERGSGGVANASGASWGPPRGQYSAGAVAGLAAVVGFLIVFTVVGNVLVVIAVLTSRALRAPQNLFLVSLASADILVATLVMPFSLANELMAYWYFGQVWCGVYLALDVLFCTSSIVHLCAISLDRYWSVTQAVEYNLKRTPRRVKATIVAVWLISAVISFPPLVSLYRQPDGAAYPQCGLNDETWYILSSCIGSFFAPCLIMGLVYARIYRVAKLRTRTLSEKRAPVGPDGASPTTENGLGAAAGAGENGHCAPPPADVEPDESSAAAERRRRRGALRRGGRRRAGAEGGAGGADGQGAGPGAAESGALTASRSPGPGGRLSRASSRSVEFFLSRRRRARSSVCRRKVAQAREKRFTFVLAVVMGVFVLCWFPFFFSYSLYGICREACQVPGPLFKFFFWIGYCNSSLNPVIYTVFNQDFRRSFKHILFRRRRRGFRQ
The experiment in a line: α2 agonist activity: inhibition of forskolin-stimulated cAMP synthesis, α2c cells. The format is cell-based. How it is done: as §1, §2, §3

For data set [3], the target named is T3, human α2b adrenergic receptor (Homo sapiens, UniProt P18089).
T3 construct: expressed in transfected cells; host or cells: stably transfected cells, vector pcEXV-3; deposited line L-NGC-α2B (ATCC CRL-10275)
T3 sequence (P18089 1-450): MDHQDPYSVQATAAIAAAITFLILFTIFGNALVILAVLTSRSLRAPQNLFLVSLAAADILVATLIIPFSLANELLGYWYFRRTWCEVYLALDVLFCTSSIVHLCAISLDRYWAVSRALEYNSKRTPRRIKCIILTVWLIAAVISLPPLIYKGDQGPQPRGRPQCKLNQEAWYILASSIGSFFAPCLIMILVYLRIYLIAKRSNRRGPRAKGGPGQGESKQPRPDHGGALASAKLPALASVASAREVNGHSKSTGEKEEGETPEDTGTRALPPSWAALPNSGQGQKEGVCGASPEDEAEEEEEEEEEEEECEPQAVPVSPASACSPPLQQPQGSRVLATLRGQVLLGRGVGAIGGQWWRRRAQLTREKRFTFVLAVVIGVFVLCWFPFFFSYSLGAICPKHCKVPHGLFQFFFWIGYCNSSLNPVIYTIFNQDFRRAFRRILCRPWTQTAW
The experiment in a line: α2 agonist activity: inhibition of forskolin-stimulated cAMP synthesis, α2b cells. The format is cell-based. Here is the method:
as §1, §2, §3

In data set [4] the target is T1, human α2a adrenergic receptor. The experiment in a line: Equilibrium competition binding, [3H]rauwolscine, cloned human α2a. Here is the method:
as §1, §2
The insert housing this coding region was a 2.5 kb Kpnl/HindIII human placenta genomic fragment which was end-blunted by either T4 polymerase or Klenow fragment of DNA polymerase. Stable cell lines were obtained by to-transfection with the plasmid pGCcos3neo (plasmid containing the α2a receptor gene) and the plasmid pGCcos3neo (plasmid containing the aminoglycoside transferase gene) into LM(tk−), CHO, and NIH3T3 cells, using calcium phosphate technique. The cells were grown in a controlled environment (37° C., 5% CO2) as monolayers in Dulbecco's modified Eagle's Medium (GIBCO, Grand Island, N.Y.) containing 25 mM glucose and supplemented with 10% bovine calf serum, 100 units/mL penicillin g, and […] streptomycin sulfate.
(§4) The stable cell lines described above were scraped from culture flasks into 5 mL of 5 mM Tris-HCl, […], pH 7.5, and lysed by sonication. The cell lysates were centrifuged at 1,000 rpm for 5 min. at 4° C., and the supernatant was centrifuged at 30,000×g for 20 min. at 4° C. The pellet was suspended in 50 mM Tris-HCl, 1 mM MgCl2, and 0.1% ascorbic acid at pH 7.5. Binding of the α2 antagonist [^3H]rauwolscine (0.5 nM) or the α1 antagonist [^3H]prazosin (0.5 nM) to membrane preparations of LM(tk−) cells was done in a final volume of 0.25 mL and incubated at 37° C. for 20 min. Nonspecific binding was determined in the presence of […]. The reaction was stopped by filtration through GF/B filters using a cell harvester.

Data set [5] has as its target T3, human α2b adrenergic receptor. The experiment in a line: Equilibrium competition binding, [3H]rauwolscine, cloned human α2b. How it is done:
as §1, §2
Stable cell lines were selected as described above.
as §4

Data set [6] addresses T2, human α2c adrenergic receptor. Nature of the data set: Equilibrium competition binding, [3H]rauwolscine, cloned human α2c. How it is done:
as §1, §2
The insert housing this coding region was a 1.8 kb Ncol/EcoR1 human spleen genomic fragment which was end-blunted by either T4 polymerase or Klenow fragment of DNA polymerase. Stable cell lines were selected as described above.
as §4

Setting [7] is: inhibition of forskolin-stimulated cAMP, cloned human α2c.
The mark [8] stands for this setting: inhibition of forskolin-stimulated cAMP, cloned human α2c, read-out: α2c pEC50 (converted).
Setting [9] is: inhibition of forskolin-stimulated cAMP, cloned human α2b.
Where [10] appears, read: cloned human α2c, membrane preparations, [3H]rauwolscine, read-out: α2c pKi (converted).

Take `c1nc2c(cc1NC1=NCCN1)CSCC2` (as salt: fumarate) [Example 25, 2-(5,6,7,8-tetrahydro-6-thia-quinolin-3-yl)amino-2-imidazoline]: the melting point is 199.5 to 200.5 °C. Take `CC1CCCc2ccc(NC3=NCCN3)cc21` (centres unmarked) (as salt: fumarate): the melting point is 185 to 187 °C (dec.). On the same count and under the same terms, the same measure for `Br.Brc1cc2c(cc1NC1=NCCN1)CCC2`: 220 to 221 °C.

Turning to `CC1(C)CCCc2cc(NC3=NCCN3)cnc21` (as salt: fumarate), the melting point is 185 to 186 °C (dec.).

Regarding `O=C1CCCc2ccc(NC3=NCCN3)cc21` (as salt: fumarate) [Example 4, 2-(1,2,3,4-Tetrahydro-1-oxo-naphth-7-yl)amino-2-imidazoline], the melting point was 198 to 201 °C (dec.). Still for that read-out and setting: under `c1nc2c(cc1NC1=NCCN1)CCCC2` (as salt: fumarate) stands 201 to 203 °C. Take `Brc1nc2c(c(Br)c1NC1=NCCN1)CCC2` [Example 29, 2-(2,4-Dibromo-5,6-cyclopentenopyrid-3-yl)amino-2-imidazoline]: the EC50 in data set [1] is 15.8 nM; in data set [2] (setting [8]), 13.8 nM; in data set [3] (inhibition of forskolin-stimulated cAMP, cloned human α2b, read-out: α2b pEC50 (converted)) it was 91.2 nM. In addition, the “α2a IA (Intrinsic Activity)” value in data set [1] is on record as “(1.00)”. Further, the “α2c IA (Intrinsic Activity)” value in data set [2] (setting [7]) is on record as “(1.00)”. Further, in data set [3] (setting [9]), the “α2b IA (Intrinsic Activity)” value is “(0.40)”. Further, the Ki in data set [4] (cloned human α2a, membrane preparations, [3H]rauwolscine, read-out: α2a pKi (converted)) was 14.8 nM; in data set [5] (cloned human α2b, membrane preparations, [3H]rauwolscine, read-out: α2b pKi (converted)), 51.3 nM; in data set [6] (setting [10]), 251 nM. For the molecule `Cc1cccc(C(C)c2cnc[nH]2)c1C` (centres unmarked) [Medetomidine, reference compound], the “α2a IA (Intrinsic Activity)” value in data set [1] is “(1.00)”. Moreover, the “α2c IA (Intrinsic Activity)” value in data set [2] (setting [7]) was “(1.00)”. Besides, the EC50 in data set [2] (setting [8]) was 1.48 nM. Also, the Ki in data set [6] (setting [10]) is 5.37 nM.

For the molecule `CON=C1CCCc2ccc(NC3=NCCN3)cc21` (as salt: fumarate) [Example 8, 2-(1,2,3,4-Tetrahydro-1-methoxyimino-naphth-7-yl)amino-2-imidazoline], the melting point is 201 to 202 °C (dec.). With `c1nc2c(cc1NC1=NCCN1)CCC2` [Example 21, 2-(2,3-Cyclopentenopyrid-5-yl)amino-2-imidazoline], the EC50 in data set [1] is 389 nM; in data set [2], 16.2 nM; in data set [3], 1950 nM. Moreover, the “α2a IA (Intrinsic Activity)” value in data set [1] was “(0.58)”. For the same molecule, the “α2c IA (Intrinsic Activity)” value in data set [2] (setting [7]) is “(1.00)”. In addition, the “α2b IA (Intrinsic Activity)” value in data set [3] (setting [9]) is on record as “(0.55)”. For the same molecule, the Ki in data set [4] was 50.1 nM; in data set [5], 166 nM; in data set [6] it was 457 nM. For the molecule `Brc1c(NC2=NCCN2)ccc2nccnc12` [UK-14, 304, reference compound], in data set [2] (setting [7]), the “α2c IA (Intrinsic Activity)” value is given as “(1.00)”. As for `O=[N+]([O-])c1cc2c(cc1NC1=NCCN1)CCC2` (as salt: fumarate), the melting point was 213 to 214 °C (dec.). For `CC1CCc2ncc(NC3=NCCN3)cc2C1` (centres unmarked) (as salt: fumarate), the melting point is 192 to 195 °C (dec.).

On to `CC1CCCc2cc(NC3=NCCN3)cnc21` (centres unmarked) (as salt: fumarate), for which the melting point is 155 to 160 °C (dec.).

`O=C1CCCc2ccc(NC3=NCCN3)c(Br)c21` (as salt: fumarate) [Example 5, 2-(8-Bromo-1,2,3,4-Tetrahydro-1-oxo-naphth-7-yl)amino-2-imidazoline]: the melting point is 204 to 207 °C (dec.). Same read-out and setting: under `Brc1cc2c(c(Br)c1NC1=NCCN1)CCC2` stands 163 to 164 °C; under `OC1CCCc2ccc(NC3=NCCN3)cc21` (centres unmarked) (as salt: fumarate), 180 to 182 °C (dec.).

On to `c1nc2c(cc1NC1=NCCN1)COCC2` (as salt: fumarate), for which the melting point lay within 201 to 202.5 °C. As to `c1nc2c(cc1NC1=NCCN1)CCC2` (as salt: fumarate) [Example 21, 2-(2,3-Cyclopentenopyrid-5-yl)amino-2-imidazoline], the melting point lay in the range of 182 to 183.5 °C. In turn, `Cc1nc2c(c(C)c1NC1=NCCN1)CCC2` (as salt: fumarate) [Example 30, 2-(5,6-Cyclopenteno-2,4-dimethyl-pyrid-3-yl)amino-2-imidazoline] returned a melting point of 220 to 221 °C. `C1=NC(Cc2ccnc3ccccc23)CN1.O=C(O)/C=C/C(=O)O` (centres unmarked) came in with a melting point of 180 to 182 °C. Take `CC(=O)N1CCc2cc(NC3=NCCN3)ccc21` (as salt: fumarate) [Example 9, 2-(1-Acetyl-indolin-5-yl)amino-2-imidazoline]: the melting point was 200 to 203 °C (dec.).
